From ChEMBL document CHEMBL1201862, “PubChem BioAssay data set” (2004)
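Method: 48-hour compound exposure of cells in 96-well plates, five concentrations, linear interpolation of endpoints. Abbreviation: GI50, concentration required for 50% inhibition of growth.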 Active and inactive are the calls of the source. No stated cut-off is given here; in the data, active = GI50 up to about 1.1 µM and inactive = higher.

What was measured:
Assay in all cases: NCI-60 cell line screen, 48 h
A549 = test system: A549
CAKI-1 = test system: CAKI-1
EKVX = test system: EKVX
HOP-62 = test system: HOP-62
HT-29 = test system: HT-29
K562 = test system: K562
LOX IMVI = test system: LOX IMVI
MCF7 = test system: MCF7
NCI-H522 = test system: NCI-H522
OVCAR-4 = test system: OVCAR-4
OVCAR-5 = test system: OVCAR-5
OVCAR-8 = test system: OVCAR-8
RPMI-8226 = test system: RPMI-8226
SF-539 = test system: SF-539
SK-MEL-5 = test system: SK-MEL-5
SK-OV-3 = test system: SK-OV-3
SNB-75 = test system: SNB-75
UACC-257 = test system: UACC-257
M14 = test system: M14

| Structure (SMILES) | GI50 (A549) | GI50 (CAKI-1) | GI50 (EKVX) | GI50 (HOP-62) | GI50 (HT-29) | GI50 (K562) | GI50 (LOX IMVI) | GI50 (MCF7) | GI50 (NCI-H522) | GI50 (OVCAR-4) | GI50 (OVCAR-5) | GI50 (OVCAR-8) | GI50 (RPMI-8226) | GI50 (SF-539) | GI50 (SK-MEL-5) | GI50 (SK-OV-3) | GI50 (SNB-75) | GI50 (UACC-257) | GI50 (M14) |
| --- | --- | --- | --- | --- | --- | --- | --- | --- | --- | --- | --- | --- | --- | --- | --- | --- | --- | --- | --- |
| C=C1C(=O)O[C@H]2C1[C@H](OC(=O)/C(C)=C\COC(C)=O)C[C@]1(CO1)[C@@H]1[C@H](O)[C@H]3O[C@@]3(C)[C@@H]12 (some centres not stated) | 49.2 µM (inactive) | 14.3 µM (inactive) | 26.3 µM (inactive) | > 100 µM (inactive) | 19.1 µM (inactive) | 15.2 µM (inactive) | 16.7 µM (inactive) | 11.5 µM (inactive) | 8.87 µM (inactive) | 27 µM (inactive) | > 71.6 µM (inactive) | 24.8 µM (inactive) | 13.3 µM (inactive) | 27 µM (inactive) | 18.6 µM (inactive) | > 67 µM (inactive) | 37 µM (inactive) | 16.8 µM (inactive) |  |
| CCCN(CCCCC(NC(C)=O)C(=O)NCc1ccccc1)C(=O)NC (configuration not stated) | > 100 µM (inactive) | > 100 µM (inactive) | > 100 µM (inactive) | > 100 µM (inactive) | > 100 µM (inactive) | > 100 µM (inactive) | > 100 µM (inactive) |  | > 100 µM (inactive) | > 100 µM (inactive) | > 100 µM (inactive) | > 100 µM (inactive) | > 100 µM (inactive) | > 100 µM (inactive) | > 100 µM (inactive) | > 100 µM (inactive) | 95.7 µM (inactive) | > 100 µM (inactive) | > 100 µM (inactive) |
| C=C1C(=O)OC2/C=C(\C)CC(O)/C=C(/CO)CC(OC(=O)/C(C)=C/C)C12 (configuration not stated) | 155 µM (inactive) | 34.8 µM (inactive) | 23 µM (inactive) | 95.3 µM (inactive) | 54.6 µM (inactive) | 18 µM (inactive) | 12.3 µM (inactive) | 21.7 µM (inactive) | 13 µM (inactive) | 117 µM (inactive) | 147 µM (inactive) | 24 µM (inactive) | 7.1 µM (inactive) | 29 µM (inactive) | 14.8 µM (inactive) | 158 µM (inactive) | 133 µM (inactive) | 45.6 µM (inactive) |  |
| Cn1nc2ccc3nccc(NCCNCCCl)c3c2n1 | > 100 µM (inactive) | > 10 µM (inactive) | > 100 µM (inactive) | > 100 µM (inactive) | > 100 µM (inactive) | > 100 µM (inactive) | > 100 µM (inactive) |  | > 100 µM (inactive) | > 100 µM (inactive) | > 100 µM (inactive) | > 100 µM (inactive) | > 100 µM (inactive) | > 100 µM (inactive) |  | > 100 µM (inactive) | > 100 µM (inactive) |  | > 100 µM (inactive) |
| NC1=NS(=O)(=O)Nc2nc(-c3ccc([N+](=O)[O-])o3)[nH]c21 | > 100 µM (inactive) | 21.3 µM (inactive) |  | 18.5 µM (inactive) | 19.4 µM (inactive) | 5.38 µM (inactive) | 15.9 µM (inactive) |  | 17.4 µM (inactive) | 17.1 µM (inactive) | 19.4 µM (inactive) | 25.1 µM (inactive) | 10.7 µM (inactive) | 17.3 µM (inactive) | 18.3 µM (inactive) | > 10 µM (inactive) | 16 µM (inactive) |  | 14.9 µM (inactive) |
| COc1ccc(/C(Cl)=C(\C=O)c2ccc(Cl)cc2)cc1OC | 6.17 µM (inactive) | 4.59 µM (inactive) | 4.47 µM (inactive) | 15.9 µM (inactive) | 4.97 µM (inactive) | 3.69 µM (inactive) | 3.45 µM (inactive) |  | 2.47 µM (inactive) | 5.12 µM (inactive) | 85.1 µM (inactive) | 4.03 µM (inactive) | 3.32 µM (inactive) | 9.79 µM (inactive) | 9.25 µM (inactive) | 34.8 µM (inactive) | 3.85 µM (inactive) | 6.55 µM (inactive) | 22.4 µM (inactive) |
| O=c1[nH]cnc2[nH]nnc12 | 84.9 µM (inactive) | 1.25 µM (inactive) | > 100 µM (inactive) | 1.99 µM (inactive) | 7.96 µM (inactive) | 0.593 µM (active) | 0.668 µM (active) |  | 9.51 µM (inactive) | 4.93 µM (inactive) | 29.8 µM (inactive) | 0.723 µM (active) | 0.685 µM (active) | 3.85 µM (inactive) | 41.5 µM (inactive) | 4.31 µM (inactive) | 4.11 µM (inactive) | 4.39 µM (inactive) | 1.11 µM (active) |
| O=C(CC(=O)c1ccc([N+](=O)[O-])cc1)C(=O)Nc1nccs1 | > 100 µM (inactive) | > 100 µM (inactive) | > 100 µM (inactive) | > 100 µM (inactive) | > 100 µM (inactive) | > 100 µM (inactive) | > 100 µM (inactive) |  | > 100 µM (inactive) | > 100 µM (inactive) | > 100 µM (inactive) |  | > 100 µM (inactive) | > 100 µM (inactive) | > 100 µM (inactive) | > 100 µM (inactive) | > 100 µM (inactive) |  | > 100 µM (inactive) |
| O=C(Nc1ccc(Cl)cc1Cl)c1c/c(=N\O)c2ccc(O)cc2o1 | > 100 µM (inactive) | > 100 µM (inactive) |  | > 100 µM (inactive) | > 100 µM (inactive) | > 100 µM (inactive) | > 100 µM (inactive) |  | > 100 µM (inactive) | > 100 µM (inactive) | > 100 µM (inactive) | > 100 µM (inactive) | > 100 µM (inactive) | > 100 µM (inactive) | > 100 µM (inactive) | > 100 µM (inactive) | 30.9 µM (inactive) | > 100 µM (inactive) | > 100 µM (inactive) |
| CCCC/C(C)=N/NC(N)=S | > 100 µM (inactive) | > 100 µM (inactive) | > 100 µM (inactive) | > 100 µM (inactive) | > 100 µM (inactive) | > 100 µM (inactive) | > 100 µM (inactive) |  | > 100 µM (inactive) |  | > 100 µM (inactive) | > 100 µM (inactive) | > 100 µM (inactive) | > 100 µM (inactive) | > 100 µM (inactive) | > 100 µM (inactive) | > 100 µM (inactive) | > 100 µM (inactive) | > 100 µM (inactive) |
| CC(=O)/C=C\C(=O)NNS(=O)(=O)c1ccc(C)cc1 | > 100 µM (inactive) | > 100 µM (inactive) | > 100 µM (inactive) | > 100 µM (inactive) | > 100 µM (inactive) | > 100 µM (inactive) | > 100 µM (inactive) |  | > 100 µM (inactive) | > 100 µM (inactive) | > 100 µM (inactive) | > 100 µM (inactive) | > 100 µM (inactive) | > 100 µM (inactive) | > 100 µM (inactive) | > 100 µM (inactive) | > 100 µM (inactive) | > 100 µM (inactive) | > 100 µM (inactive) |
| COc1ccc(/C(=N/O)C(c2ccc(OC)cc2)C2C(=O)Oc3ccccc32)cc1 (configuration not stated) | 42 µM (inactive) | 92 µM (inactive) | 53.1 µM (inactive) |  | > 100 µM (inactive) | 71.4 µM (inactive) | 79.6 µM (inactive) |  | 35.6 µM (inactive) | 48.6 µM (inactive) | 12.7 µM (inactive) | 61.7 µM (inactive) | > 100 µM (inactive) | > 100 µM (inactive) | 24.8 µM (inactive) | > 100 µM (inactive) | 82.8 µM (inactive) | 34.7 µM (inactive) | 51.3 µM (inactive) |
| O=C(Nc1ccc(C(F)(F)F)cc1[N+](=O)[O-])C(=O)Nn1c(S)nc2ccccc2c1=O | > 100 µM (inactive) | > 100 µM (inactive) | 33.3 µM (inactive) | > 100 µM (inactive) | > 100 µM (inactive) | > 100 µM (inactive) | > 100 µM (inactive) |  | > 100 µM (inactive) | > 100 µM (inactive) | > 100 µM (inactive) | > 100 µM (inactive) | > 100 µM (inactive) | > 100 µM (inactive) | > 100 µM (inactive) | > 100 µM (inactive) | > 100 µM (inactive) | > 100 µM (inactive) |  |
| CCC/C(=N\NC(=O)c1cc2ccccc2cc1O)C(CC)C(=O)CCC(=O)N(Cc1ccccc1)Cc1ccccc1 (configuration not stated) | 63 µM (inactive) | 46 µM (inactive) | 32 µM (inactive) | 81.1 µM (inactive) | 83.2 µM (inactive) | 26.2 µM (inactive) | 43 µM (inactive) |  | 39.1 µM (inactive) | 59 µM (inactive) | 36.2 µM (inactive) | 49.9 µM (inactive) | 45.8 µM (inactive) | 48.1 µM (inactive) | 23.4 µM (inactive) | > 100 µM (inactive) | 9.73 µM (inactive) | 36.1 µM (inactive) | 32.7 µM (inactive) |
| O=c1cc(-c2ccccc2)oc2cc(OCCCOc3ccc4c(=O)cc(-c5ccccc5)oc4c3)ccc12 | > 100 µM (inactive) | > 100 µM (inactive) | > 100 µM (inactive) | > 100 µM (inactive) | > 100 µM (inactive) | > 100 µM (inactive) | > 100 µM (inactive) |  | > 100 µM (inactive) | > 100 µM (inactive) | > 100 µM (inactive) | > 100 µM (inactive) | > 100 µM (inactive) | > 100 µM (inactive) | > 100 µM (inactive) | > 100 µM (inactive) | 47.2 µM (inactive) | > 100 µM (inactive) | > 100 µM (inactive) |
| C=C1C(OC(C)=O)CC(OC(C)=O)C2(C)C(OC(C)=O)C(OC(C)=O)C3=C(C)C(OC(=O)/C=C/c4ccccc4)CC(C(OC(C)=O)C12)C3(C)C (configuration not stated) | > 100 µM (inactive) | 33.1 µM (inactive) |  | 31 µM (inactive) | > 100 µM (inactive) | > 100 µM (inactive) | > 100 µM (inactive) |  | 68.1 µM (inactive) | 16.7 µM (inactive) | > 100 µM (inactive) | 46.3 µM (inactive) | > 100 µM (inactive) | 25.5 µM (inactive) | > 100 µM (inactive) | 30.5 µM (inactive) | 15.1 µM (inactive) | > 100 µM (inactive) | > 100 µM (inactive) |
